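Assay format: 96-well plates, 48-hour exposure. Here, GI50 denotes the concentration required for 50% inhibition of growth. The concentration for full growth arrest is given as TGI.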
How the values were obtained:
Assay in all cases: NCI anticancer screen, dose series, 48 h
SK-MEL-28 melanoma = tested on: SK-MEL-28 melanoma
RPMI-8226 leukemia = tested on: RPMI-8226 leukemia
A498 renal = tested on: A498 renal
EKVX NSCLC = tested on: EKVX NSCLC
OVCAR-3 ovarian = tested on: OVCAR-3 ovarian
HCC-2998 colon = tested on: HCC-2998 colon
BT-549 breast = tested on: BT-549 breast
OVCAR-4 ovarian = tested on: OVCAR-4 ovarian
MDA-MB-435 = tested on: MDA-MB-435
M14 melanoma = tested on: M14 melanoma

## C[C@@H](CO)NC(=O)c1cc(-c2ccc(Cl)cc2)nn(-c2cnn(C)c2)c1=O
SK-MEL-28 melanoma
  GI50: 28.4 µM
  TGI: 82.1 µM
RPMI-8226 leukemia
  GI50: 20.5 µM
  TGI: > 100 µM
A498 renal
  GI50: 3.01 µM
  TGI: 62.3 µM
EKVX NSCLC
  GI50: 26 µM
  TGI: > 100 µM
OVCAR-3 ovarian
  GI50: 45.5 µM
  TGI: > 100 µM
HCC-2998 colon
  GI50: 23.1 µM
  TGI: > 100 µM
BT-549 breast
  GI50: 23.7 µM
  TGI: 86.9 µM
OVCAR-4 ovarian
  GI50: 45.9 µM
  TGI: > 100 µM
MDA-MB-435
  GI50: 50.3 µM
  TGI: > 100 µM
M14 melanoma
  GI50: 31.1 µM
  TGI: > 100 µM

## CC1(C)O[C@@H]2C[C@H]3[C@@H]4C[C@H](F)C5=CC(=O)C=C[C@]5(C)[C@@]4(F)[C@@H](O)C[C@]3(C)[C@]2(C(=O)CO)O1
SK-MEL-28 melanoma
  TGI: > 100 µM
RPMI-8226 leukemia
  TGI: > 100 µM
A498 renal
  TGI: > 100 µM
EKVX NSCLC
  TGI: > 100 µM
OVCAR-3 ovarian
  TGI: > 100 µM
HCC-2998 colon
  TGI: > 100 µM
BT-549 breast
  TGI: > 100 µM
OVCAR-4 ovarian
  TGI: > 100 µM
MDA-MB-435
  TGI: > 100 µM
M14 melanoma
  TGI: > 100 µM

## C/C(=N\NC(=S)N1CCCCCC1)c1cccc2cccnc12
SK-MEL-28 melanoma
  TGI: > 66.4 µM
RPMI-8226 leukemia
  TGI: 15.3 µM
A498 renal
  TGI: 54.9 µM
EKVX NSCLC
  TGI: > 75.3 µM
OVCAR-3 ovarian
  TGI: 0.567 µM
HCC-2998 colon
  TGI: > 100 µM
BT-549 breast
  TGI: > 92.4 µM
OVCAR-4 ovarian
  TGI: > 21.4 µM
MDA-MB-435
  TGI: > 100 µM
M14 melanoma
  TGI: 14 µM

## COc1ccc(-c2c3c(nc4n[nH]c(-c5ccc(Cl)cc5)c24)-c2ccccc2C(=O)C3=O)cc1
SK-MEL-28 melanoma
  GI50: 1.84 µM
  TGI: 3.9 µM
RPMI-8226 leukemia
  GI50: 1.72 µM
  TGI: 7.15 µM
A498 renal
  GI50: 3.72 µM
  TGI: 17.6 µM
EKVX NSCLC
  GI50: 1.64 µM
  TGI: 4.43 µM
OVCAR-3 ovarian
  GI50: 1.28 µM
  TGI: 4.33 µM
HCC-2998 colon
  GI50: 1.73 µM
  TGI: 3.19 µM
BT-549 breast
  GI50: 1.41 µM
  TGI: 2.89 µM
OVCAR-4 ovarian
  GI50: 1.7 µM
  TGI: 15.9 µM
MDA-MB-435
  GI50: 1.54 µM
  TGI: 3.43 µM
M14 melanoma
  GI50: 1.71 µM
  TGI: 3.48 µM

## CN(CCCCCl)P(=O)(OCc1ccc([N+](=O)[O-])o1)OCC1OC(n2cnc([N+](=O)[O-])c2N)C(O)C1O (stereo unspecified)
SK-MEL-28 melanoma
  GI50: > 100 µM
  TGI: > 100 µM
RPMI-8226 leukemia
  GI50: > 100 µM
  TGI: > 100 µM
A498 renal
  GI50: > 100 µM
  TGI: > 100 µM
EKVX NSCLC
  GI50: > 100 µM
  TGI: > 100 µM
OVCAR-3 ovarian
  GI50: > 100 µM
  TGI: > 100 µM
HCC-2998 colon
  GI50: > 100 µM
  TGI: > 100 µM
BT-549 breast
  GI50: > 100 µM
  TGI: > 100 µM
OVCAR-4 ovarian
  GI50: > 100 µM
  TGI: > 100 µM
MDA-MB-435
  GI50: > 100 µM
  TGI: > 100 µM

## CN(C)c1ccc(/C=N/S(=O)(=O)c2ccc(-n3c(-c4ccccc4)nc4c(Br)cc(Br)cc4c3=O)cc2)cc1
SK-MEL-28 melanoma
  GI50: 43.6 µM
  TGI: > 100 µM
RPMI-8226 leukemia
  GI50: 4.27 µM
  TGI: > 96.4 µM
A498 renal
  GI50: 32.5 µM
  TGI: > 93.7 µM
EKVX NSCLC
  GI50: 27.6 µM
  TGI: 91.6 µM
OVCAR-3 ovarian
  GI50: 34.2 µM
  TGI: > 100 µM
HCC-2998 colon
  GI50: 51.2 µM
  TGI: > 100 µM
BT-549 breast
  GI50: 30.6 µM
  TGI: > 68.8 µM
OVCAR-4 ovarian
  GI50: 30.3 µM
  TGI: 97.3 µM
MDA-MB-435
  GI50: 42 µM
  TGI: > 90.7 µM
M14 melanoma
  GI50: 31.1 µM
  TGI: > 93.5 µM

## CCSC[C@@H]1C[C@](O)(c2ccc(F)cc2)[C@@H](c2ccc(F)cc2)O1
SK-MEL-28 melanoma
  GI50: 18.3 µM
  TGI: 33.3 µM
RPMI-8226 leukemia
  GI50: 14.9 µM
  TGI: 36.1 µM
A498 renal
  GI50: 19 µM
  TGI: 33.1 µM
EKVX NSCLC
  GI50: 15.3 µM
  TGI: 31.7 µM
OVCAR-3 ovarian
  GI50: 19.2 µM
  TGI: 37.1 µM
HCC-2998 colon
  GI50: 18.8 µM
  TGI: 36.6 µM
BT-549 breast
  GI50: 16.8 µM
  TGI: 30.9 µM
OVCAR-4 ovarian
  GI50: 16.3 µM
  TGI: 32.5 µM
MDA-MB-435
  GI50: 17.7 µM
  TGI: 37.8 µM
M14 melanoma
  GI50: 15.8 µM
  TGI: 32.4 µM

## CC1SC2(CCCCC2)N(NC(=O)c2[nH]c3ccc(Br)cc3c2-c2ccccc2)C1=O (stereo unspecified)
SK-MEL-28 melanoma
  GI50: 56.2 µM
  TGI: > 100 µM
RPMI-8226 leukemia
  GI50: 3.83 µM
  TGI: 30.2 µM
A498 renal
  GI50: > 100 µM
  TGI: > 100 µM
EKVX NSCLC
  GI50: > 100 µM
  TGI: > 100 µM
OVCAR-3 ovarian
  GI50: 3.24 µM
  TGI: 20.9 µM
HCC-2998 colon
  GI50: > 100 µM
  TGI: > 100 µM
BT-549 breast
  GI50: > 100 µM
  TGI: > 100 µM
OVCAR-4 ovarian
  GI50: 13.2 µM
  TGI: 90.7 µM
MDA-MB-435
  GI50: 30.1 µM
  TGI: > 100 µM
M14 melanoma
  GI50: 64 µM
  TGI: > 100 µM

## O=C1CN(c2cccc(Cl)c2)C(=O)CN1NCNN1CC(=O)N(c2cccc(Cl)c2)CC1=O
SK-MEL-28 melanoma
  TGI: > 100 µM
RPMI-8226 leukemia
  TGI: > 100 µM
A498 renal
  TGI: > 100 µM
EKVX NSCLC
  TGI: > 100 µM
OVCAR-3 ovarian
  TGI: > 100 µM
HCC-2998 colon
  TGI: > 100 µM
BT-549 breast
  TGI: > 100 µM
OVCAR-4 ovarian
  TGI: > 100 µM
MDA-MB-435
  TGI: > 100 µM
M14 melanoma
  TGI: > 100 µM

## CC(=O)O[C@H]1CC[C@@]2(C)C(=C/C(=N/OCCN3CCCC3)[C@H]3[C@@H]4CC[C@H](OC(C)=O)[C@@]4(C)CC[C@@H]32)C1
SK-MEL-28 melanoma
  GI50: 31.2 µM
  TGI: 64.1 µM
RPMI-8226 leukemia
  GI50: 22 µM
  TGI: 53.3 µM
A498 renal
  GI50: 76.7 µM
  TGI: > 100 µM
EKVX NSCLC
  GI50: > 100 µM
  TGI: > 100 µM
OVCAR-3 ovarian
  GI50: > 100 µM
  TGI: > 100 µM
HCC-2998 colon
  GI50: 45 µM
  TGI: > 100 µM
BT-549 breast
  GI50: 53.4 µM
  TGI: > 100 µM
OVCAR-4 ovarian
  GI50: > 100 µM
  TGI: > 100 µM
MDA-MB-435
  GI50: 53 µM
  TGI: > 100 µM
M14 melanoma
  GI50: 17.6 µM
  TGI: 37.2 µM

## Cc1cc(S(=O)(=O)Nc2n[nH]c(N)n2)c(Cl)cc1Cl
SK-MEL-28 melanoma
  TGI: > 10 µM
RPMI-8226 leukemia
  TGI: > 10 µM
A498 renal
  TGI: > 10 µM
EKVX NSCLC
  TGI: > 10 µM
OVCAR-3 ovarian
  TGI: > 10 µM
HCC-2998 colon
  TGI: > 10 µM
BT-549 breast
  TGI: > 10 µM
OVCAR-4 ovarian
  TGI: > 10 µM
MDA-MB-435
  TGI: > 10 µM
M14 melanoma
  TGI: > 10 µM

## COC(=O)[C@H](Cc1cn(C)cn1)NC(=O)[C@H](C)NC(=O)Nc1cc(C(F)(F)F)cc(C(F)(F)F)c1
SK-MEL-28 melanoma
  GI50: > 10 µM
  TGI: > 10 µM
RPMI-8226 leukemia
  GI50: > 10 µM
  TGI: > 10 µM
A498 renal
  GI50: > 10 µM
  TGI: > 10 µM
OVCAR-3 ovarian
  GI50: > 10 µM
  TGI: > 10 µM
HCC-2998 colon
  GI50: > 10 µM
  TGI: > 10 µM
BT-549 breast
  GI50: > 10 µM
  TGI: > 10 µM
OVCAR-4 ovarian
  GI50: > 10 µM
  TGI: > 10 µM
MDA-MB-435
  GI50: > 10 µM
  TGI: > 10 µM
M14 melanoma
  GI50: > 10 µM
  TGI: > 10 µM

## Cc1cccc2c3c(sc12)C(c1ccc(F)cc1)C(C#N)=C(N)O3 (stereo unspecified)
SK-MEL-28 melanoma
  GI50: 1.97 µM
  TGI: 20.7 µM
RPMI-8226 leukemia
  GI50: 0.048 µM
  TGI: 8.31 µM
A498 renal
  GI50: 0.0192 µM
  TGI: 0.318 µM
EKVX NSCLC
  GI50: 0.141 µM
  TGI: 17.6 µM
OVCAR-3 ovarian
  GI50: 0.0401 µM
  TGI: 1.85 µM
HCC-2998 colon
  GI50: 0.311 µM
  TGI: 9.75 µM
BT-549 breast
  GI50: 0.297 µM
  TGI: 3.18 µM
OVCAR-4 ovarian
  GI50: 0.528 µM
  TGI: 17.1 µM
MDA-MB-435
  GI50: 0.0222 µM
  TGI: 0.0514 µM
M14 melanoma
  GI50: 0.0976 µM
  TGI: 11.7 µM
